From patent publication US5696151A, “Compounds useful for the inhibition of the replication of HIV-1 and HIV-1 mutants” (priority 1995, dated 1997)
In brackets after ≈: the same amount, converted by molar mass.

Experiments:
Assay type in all cases: cell-based
HIV-1/181-Cys = experiment: Inhibition of HIV-1 induced syncytium formation in CEM cells, RT mutant 181-Cys; details: Human immunodeficiency virus 1, CCRF-CEM, 96 h, Table 2B, day 4, averages of 2 to 3 independent experiments, read-out: Antiviral Activity of Comparative Compounds EC50, 181-Cys
Text: (§1) CEM cells were obtained from the American Tissue Cell Culture Collection (Rockville, Md.). HIV-1(IIIB) was originally obtained from the culture supernatant of persistently HIV-1-infected H9 cells and was provided by R. C. Gallo and M. Popovic (National Cancer Institute, National Institutes of Health, Bethesda, Md.). […] 67: 5353-5359 (1993); HIV-1/Lys-138 ("Lys-138") was selected for resistance against TSAO-m^3T as described in Balzarini et al, Virology 192: 246-253 (1993) and Balzarini et al, Proc. Nat. Acad. Sci. USA 90: 6952-6956 (1993); HIV-1/181-Cys ("181-Cys") was selected for resistance against pyridinone L-697,661 as described in Balzarini et al, Virology 192: 246-253 (1993); and HIV-1/188-His ("188-His") was selected for resistance against HEPT as described in Balzarini et al, Mol. Pharmocol. 44: 694-701 (1993). 188-His was then further converted to HIV-1/188-Leu "188-Leu") upon further passage in cell culture in the absence of the HEPT.
(§2) CEM cells were suspended at ≈300,000 cells per ml of culture medium and infected with approximately 100 CCID50 (CCID50 being the 50% cell culture infective dose) of HIV-1(IIIB) or one of the HIV-1 RT mutant strains described above. Then 100 μl of the infected cell suspensions was added to 200 μl microtiter plate wells containing 100 μl of appropriate serial (5-fold) dilutions of the test compounds. The inhibitory effect of the test compounds on HIV-1 induced syncytium formation in CEM cells was examined microscopically on day 4 post infection.

in vitro = details: human, cem cells, CC50 (50% cytostatic concentration), Table 2B; CEM cell proliferation; averages of 2 to 3 independent experiments
Text: as §1
^b 50% cytostatic concentration (i.e., compound concentration require
to inhibit CEM cell proliferation by 50%)

HIV-1/100-Ile = experiment: Inhibition of HIV-1 induced syncytium formation in CEM cells, RT mutant 100-Ile; details: Human immunodeficiency virus 1, CCRF-CEM, 96 h, Table 2B, day 4, averages of 2 to 3 independent experiments, read-out: Antiviral Activity of Comparative Compounds EC50, 100-Ile
Text: as §1, §2

HIV-1/106-Ala = experiment: Inhibition of HIV-1 induced syncytium formation in CEM cells, RT mutant 106-Ala; details: Human immunodeficiency virus 1, CCRF-CEM, 96 h, Table 2B, day 4, averages of 2 to 3 independent experiments, read-out: Antiviral Activity of Comparative Compounds EC50, 106-Ala
Text: as §1, §2

HIV-1/Lys-138 = experiment: Inhibition of HIV-1 induced syncytium formation in CEM cells, RT mutant 138-Lys; details: Human immunodeficiency virus 1, CCRF-CEM, 96 h, Table 2B, day 4, averages of 2 to 3 independent experiments, read-out: Antiviral Activity of Comparative Compounds EC50, 138-Lys
Text: as §1, §2

HIV-1(IIIB) = experiment: Inhibition of HIV-1 induced syncytium formation in CEM cells, wild type; details: Human immunodeficiency virus 1, IIIB, CCRF-CEM, 96 h, Table 2B, WT = HIV-1(IIIB), day 4, averages of 2 to 3 independent experiments, read-out: Antiviral Activity of Comparative Compounds EC50, WT
Text: as §1, §2

SMILES | EC50 (HIV-1/181-Cys) [µg/mL] | CC50 (in vitro) [µg/mL] | EC50 (HIV-1/100-Ile) [µg/mL] | EC50 (HIV-1/106-Ala) [µg/mL] | EC50 (HIV-1/Lys-138) [µg/mL] | EC50 (HIV-1(IIIB)) [µg/mL]
Cc1ccsc1C(=S)Nc1ccc(Cl)c(C(=O)OC(C(C)C)C(C)C)c1 [Compound 101] | 0.55 (≈ 1.34 µM) | ≥ 100 | 3 (≈ 7.32 µM) | 0.2 (≈ 0.488 µM) | 0.33 (≈ 0.805 µM) | 0.045 (≈ 0.11 µM)
Cc1occc1C(=S)Nc1ccc(Cl)c(C(=O)OC(C(C)C)C(C)C)c1 [Compound 102] | 0.65 (≈ 1.65 µM) | 3.7 (≈ 9.39 µM) | 0.85 (≈ 2.16 µM) | 0.85 (≈ 2.16 µM) | 0.08 (≈ 0.203 µM) | 0.03 (≈ 0.0762 µM)
Cc1occc1C(=S)Nc1ccc(Cl)c(C(=O)OCC(C)C)c1 [Compound 103] | 0.07 (≈ 0.199 µM) | 8.5 (≈ 24.2 µM) | 0.19 (≈ 0.54 µM) | 0.075 (≈ 0.213 µM) | 0.06 (≈ 0.171 µM) | 0.01 (≈ 0.0284 µM)
C=CCOC(=O)c1cc(NC(=S)c2ccoc2C)ccc1Cl [Compound 104] | 0.37 (≈ 1.1 µM) | 11 (≈ 32.8 µM) | 0.65 (≈ 1.94 µM) | 0.4 (≈ 1.19 µM) | 0.2 (≈ 0.596 µM) | 0.01 (≈ 0.0298 µM)
Cc1occc1C(=S)Nc1ccc(Cl)c(C(=O)OCC2CC2)c1 [Compound 105] | 0.07 (≈ 0.2 µM) | 6.7 (≈ 19.2 µM) | 0.4 (≈ 1.14 µM) | 0.2 (≈ 0.572 µM) | 0.085 (≈ 0.243 µM) | 0.015 (≈ 0.0429 µM)
Cc1occc1C(=S)Nc1ccc(Cl)c(C(=O)OCC(F)(F)F)c1 [Compound 106] | 0.085 (≈ 0.225 µM) | > 100 | 0.5 (≈ 1.32 µM) | 0.08 (≈ 0.212 µM) | 0.065 (≈ 0.172 µM) | 0.007 (≈ 0.0185 µM)
CCC(CC)OC(=O)c1cc(NC(=S)c2ccoc2C)ccc1Cl [Compound 107] | 0.3 (≈ 0.82 µM) | 16 (≈ 43.7 µM) | 0.6 (≈ 1.64 µM) | 0.3 (≈ 0.82 µM) | 0.15 (≈ 0.41 µM) | 0.04 (≈ 0.109 µM)
CCC(CC)COC(=O)c1cc(NC(=S)c2ccoc2C)ccc1Cl [Compound 108] | 0.08 (≈ 0.211 µM) | 7 (≈ 18.4 µM) | 0.27 (≈ 0.711 µM) | 0.08 (≈ 0.211 µM) | 0.07 (≈ 0.184 µM) | 0.007 (≈ 0.0184 µM)
Cc1occc1C(=S)Nc1ccc(Cl)c(C(=O)OC2CCCC2)c1 [Compound 109] | 0.045 (≈ 0.124 µM) | 4.3 (≈ 11.8 µM) | 0.17 (≈ 0.467 µM) | 0.04 (≈ 0.11 µM) | 0.035 (≈ 0.0962 µM) | 0.005 (≈ 0.0137 µM)
C=CC(C)(C)OC(=O)c1cc(NC(=S)c2ccoc2C)ccc1Cl [Compound 110] | 0.5 (≈ 1.37 µM) | 25 (≈ 68.7 µM) | 4 (≈ 11 µM) | 0.2 (≈ 0.55 µM) | 0.1 (≈ 0.275 µM) | 0.04 (≈ 0.11 µM)
C=CCON=Cc1cc(NC(=S)c2ccoc2C)ccc1Cl [Compound 111] | 0.3 (≈ 0.896 µM) | 12 (≈ 35.8 µM) | 0.5 (≈ 1.49 µM) | 0.085 (≈ 0.254 µM) | 0.077 (≈ 0.23 µM) | 0.007 (≈ 0.0209 µM)
C#CCON=Cc1cc(NC(=S)c2ccoc2C)ccc1Cl [Compound 112] | 0.8 (≈ 2.4 µM) | 10 (≈ 30 µM) | 0.75 (≈ 2.25 µM) | 0.35 (≈ 1.05 µM) | 0.5 (≈ 1.5 µM) | 0.025 (≈ 0.0751 µM)
Cc1occc1C(=S)Nc1ccc(Cl)c(C=NOC2CCCC2)c1 [Compound 113] | 0.13 (≈ 0.358 µM) | 5.4 (≈ 14.9 µM) | 0.27 (≈ 0.744 µM) | 0.085 (≈ 0.234 µM) | 0.15 (≈ 0.413 µM) | 0.023 (≈ 0.0634 µM)
Cc1occc1C(=S)Nc1ccc(Cl)c(OCC(=O)OC(C)(C)C)c1 [Compound 115] | 0.5 (≈ 1.31 µM) | 4.3 (≈ 11.3 µM) | 0.65 (≈ 1.7 µM) | 0.2 (≈ 0.524 µM) | 0.77 (≈ 2.02 µM) | 0.29 (≈ 0.759 µM)
CCOC(=O)CSc1cc(NC(=S)c2ccoc2C)ccc1Cl [Compound 116] | 2 (≈ 5.41 µM) | ≥ 100 | 1.8 (≈ 4.87 µM) | 5.5 (≈ 14.9 µM) | 0.6 (≈ 1.62 µM) | 0.085 (≈ 0.23 µM)
C#CCOc1cc(NC(=S)c2ccoc2C)ccc1Cl [Compound 117] | 4 (≈ 13.1 µM) | 18 (≈ 58.9 µM) | 5 (≈ 16.4 µM) | 0.75 (≈ 2.45 µM) | 0.35 (≈ 1.14 µM) | 0.06 (≈ 0.196 µM)
